Source: ChEMBL document CHEMBL4011590, “Structure-activity relationship studies on 3,5-dinitrophenyl tetrazoles as antitubercular agents” (Eur J Med Chem, 2017)
In brackets after ≈: the same amount, converted by molar mass.

Columns and labels:
Type in all cases: functional
[1] = system: Staphylococcus aureus; assay: Antibacterial activity against Staphylococcus aureus ATCC 6538 after 24 hrs by broth microdilution method; settings: ATCC 6538, 24 h
[2] = system: Staphylococcus aureus; assay: Antibacterial activity against methicillin-resistant Staphylococcus aureus HK5996/08 after 24 hrs by broth microdilution method; settings: HK5996/08, 24 h
[3] = system: Enterococcus sp.; assay: Antibacterial activity against Enterococcus sp. HK14365/08 after 24 hrs by broth microdilution method; settings: HK14365/08, 24 h
[4] = system: Staphylococcus epidermidis; assay: Antibacterial activity against Staphylococcus epidermidis HK6966/08 after 24 hrs by broth microdilution method; settings: HK6966/08, 24 h
[5] = system: Mycobacterium tuberculosis; assay: Antimycobacterial activity against Mycobacterium tuberculosis H37Rv CNCTC My 331/88 after 21 days by micromethod; settings: H37Rv CNCTC My 331/88, 504 h
[6] = system: Nakaseomyces glabratus; assay: Antifungal activity against Candida glabrata 20/I after 24 hrs by broth microdilution method
[7] = system: Aspergillus fumigatus; assay: Antifungal activity against Aspergillus fumigatus 231 after 24 hrs by broth microdilution method; settings: Aspergillus fumigatus, 231, 24 h
[8] = system: Nakaseomyces glabratus; assay: Antifungal activity against Candida glabrata 20/I after 48 hrs by broth microdilution method
[9] = system: Trichophyton mentagrophytes; assay: Antifungal activity against Trichophyton mentagrophytes 445 after 120 hrs by broth microdilution method; settings: Trichophyton mentagrophytes, 445, 120 h
[10] = system: Candida tropicalis; assay: Antifungal activity against Candida tropicalis 156 after 24 hrs by broth microdilution method; settings: Candida tropicalis, 156, 24 h
[11] = system: Mycobacterium kansasii; assay: Antimycobacterial activity against Mycobacterium kansasii CNCTC My 235/80 after 7 days by micromethod; settings: CNCTC My 235/80, 168 h
[12] = system: Candida albicans; assay: Antifungal activity against Candida albicans ATCC 44859 after 24 hrs by broth microdilution method; settings: ATCC 44859, 24 h
[13] = system: Enterococcus sp.; assay: Antibacterial activity against Enterococcus sp. HK14365/08 after 48 hrs by broth microdilution method; settings: HK14365/08, 48 h
[14] = system: Klebsiella pneumoniae; assay: Antibacterial activity against Klebsiella pneumoniae HK11750/08 after 24 hrs by broth microdilution method; settings: HK11750/08, 24 h
[15] = system: Candida tropicalis; assay: Antifungal activity against Candida tropicalis 156 after 48 hrs by broth microdilution method; settings: Candida tropicalis, 156, 48 h
[16] = system: Pichia kudriavzevii; assay: Antifungal activity against Candida krusei E28 after 48 hrs by broth microdilution method; settings: E28, 48 h
[17] = system: Lichtheimia corymbifera; assay: Antifungal activity against Absidia corymbifera 272 after 24 hrs by broth microdilution method; settings: Lichtheimia corymbifera, 272, 24 h
[18] = system: Pseudomonas aeruginosa; assay: Antibacterial activity against Pseudomonas aeruginosa ATCC 9027 after 48 hrs by broth microdilution method; settings: ATCC 9027, 48 h
[19] = system: Staphylococcus epidermidis; assay: Antibacterial activity against Staphylococcus epidermidis HK6966/08 after 48 hrs by broth microdilution method; settings: HK6966/08, 48 h
[20] = system: Mycobacterium kansasii; assay: Antimycobacterial activity against Mycobacterium kansasii isolate 6509/96 after 7 days by micromethod; settings: isolate 6509/96, 168 h
[21] = system: Pseudomonas aeruginosa; assay: Antibacterial activity against Pseudomonas aeruginosa ATCC 9027 after 24 hrs by broth microdilution method; settings: ATCC 9027, 24 h
[22] = system: Mycobacterium tuberculosis; assay: Antimycobacterial activity against Mycobacterium tuberculosis H37Rv CNCTC My 331/88 after 14 days by micromethod; settings: H37Rv CNCTC My 331/88, 336 h
[23] = system: Staphylococcus aureus; assay: Antibacterial activity against methicillin-resistant Staphylococcus aureus HK5996/08 after 48 hrs by broth microdilution method; settings: HK5996/08, 48 h
[24] = system: Mycobacterium kansasii; assay: Antimycobacterial activity against Mycobacterium kansasii CNCTC My 235/80 after 21 days by micromethod; settings: CNCTC My 235/80, 504 h
[25] = system: Klebsiella pneumoniae; assay: Antibacterial activity against extended spectrum beta-lactamase producing Klebsiella pneumoniae HK14368/08 after 24 hrs by broth microdilution method; settings: HK14368/08, 24 h
[26] = system: Candida albicans; assay: Antifungal activity against Candida albicans ATCC 44859 after 48 hrs by broth microdilution method; settings: ATCC 44859, 48 h
[27] = system: Trichosporon asahii; assay: Antifungal activity against Trichosporon asahii 1188 after 24 hrs by broth microdilution method; settings: Trichosporon asahii, 1188, 24 h
[28] = system: Aspergillus fumigatus; assay: Antifungal activity against Aspergillus fumigatus 231 after 48 hrs by broth microdilution method; settings: Aspergillus fumigatus, 231, 48 h
[29] = system: Mycobacterium kansasii; assay: Antimycobacterial activity against Mycobacterium kansasii CNCTC My 235/80 after 14 days by micromethod; settings: CNCTC My 235/80, 336 h
[30] = system: Mycobacterium kansasii; assay: Antimycobacterial activity against Mycobacterium kansasii isolate 6509/96 after 21 days by micromethod; settings: isolate 6509/96, 504 h
[31] = system: Klebsiella pneumoniae; assay: Antibacterial activity against extended spectrum beta-lactamase producing Klebsiella pneumoniae HK14368/08 after 48 hrs by broth microdilution method; settings: HK14368/08, 48 h
[32] = system: Trichosporon asahii; assay: Antifungal activity against Trichosporon asahii 1188 after 48 hrs by broth microdilution method; settings: Trichosporon asahii, 1188, 48 h
[33] = system: Escherichia coli; assay: Antibacterial activity against Escherichia coli ATCC 8739 after 48 hrs by broth microdilution method; settings: ATCC 8739, 48 h
[34] = system: Escherichia coli; assay: Antibacterial activity against Escherichia coli ATCC 8739 after 24 hrs by broth microdilution method; settings: ATCC 8739, 24 h
[35] = system: Lichtheimia corymbifera; assay: Antifungal activity against Absidia corymbifera 272 after 48 hrs by broth microdilution method; settings: Lichtheimia corymbifera, 272, 48 h
[36] = system: Mycobacterium kansasii; assay: Antimycobacterial activity against Mycobacterium kansasii isolate 6509/96 after 14 days by micromethod; settings: isolate 6509/96, 336 h
[37] = system: Trichophyton mentagrophytes; assay: Antifungal activity against Trichophyton mentagrophytes 445 after 72 hrs by broth microdilution method; settings: Trichophyton mentagrophytes, 445, 72 h
[38] = system: Pichia kudriavzevii; assay: Antifungal activity against Candida krusei E28 after 24 hrs by broth microdilution method; settings: E28, 24 h
[39] = system: Staphylococcus aureus; assay: Antibacterial activity against Staphylococcus aureus ATCC 6538 after 48 hrs by broth microdilution method; settings: ATCC 6538, 48 h
[40] = system: Klebsiella pneumoniae; assay: Antibacterial activity against Klebsiella pneumoniae HK11750/08 after 48 hrs by broth microdilution method; settings: HK11750/08, 48 h
[41] = system: Mycobacterium avium; assay: Antimycobacterial activity against Mycobacterium avium CNCTC My 330/80 after 21 days by micromethod; settings: CNCTC My 330/80, 504 h
[42] = system: Mycobacterium avium; assay: Antimycobacterial activity against Mycobacterium avium CNCTC My 330/80 after 14 days by micromethod; settings: CNCTC My 330/80, 336 h

## CN[C@H](CC(C)C)C(=O)N[C@H]1C(=O)N[C@@H](CC(N)=O)C(=O)N[C@H]2C(=O)N[C@H]3C(=O)N[C@H](C(=O)N[C@H](C(=O)O)c4cc(O)cc(O)c4-c4cc3ccc4O)[C@H](O)c3ccc(c(Cl)c3)Oc3cc2cc(c3O[C@@H]2O[C@H](CO)[C@@H](O)[C@H](O)[C@H]2O[C@H]2C[C@](C)(N)[C@H](O)[C@H](C)O2)Oc2ccc(cc2Cl)[C@H]1O [VANCOMYCIN]
[1]
  MIC: 0.35 µM (≈ 0.507 µg/mL)
[2]
  MIC: 0.35 µM (≈ 0.507 µg/mL)
[3]
  MIC: 0.7 µM (≈ 1.01 µg/mL)
[4]
  MIC: 0.35 µM (≈ 0.507 µg/mL)

## O=[N+]([O-])c1cc(-c2nnn(CSc3nnnn3-c3ccccc3)n2)cc([N+](=O)[O-])c1
[5]
  MIC99: 0.25 µM (≈ 0.107 µg/mL)
[6]
  MIC: > 125 µM
[7]
  MIC: > 125 µM
[8]
  MIC: > 125 µM
[9]
  MIC: > 125 µM
[1]
  MIC: > 125 µM
[2]
  MIC: > 125 µM
[10]
  MIC: > 125 µM
[11]
  MIC99: 1 µM (≈ 0.426 µg/mL)
[12]
  MIC: > 125 µM
[13]
  MIC: > 125 µM
[14]
  MIC: > 125 µM
[15]
  MIC: > 125 µM
[3]
  MIC: > 125 µM
[16]
  MIC: > 125 µM
[17]
  MIC: > 125 µM
[18]
  MIC: > 125 µM
[19]
  MIC: > 125 µM
[20]
  MIC99: 0.5 µM (≈ 0.213 µg/mL)
[21]
  MIC: > 125 µM
[22]
  MIC99: 0.125 µM (≈ 0.0533 µg/mL)
[23]
  MIC: > 125 µM
[24]
  MIC99: 4 µM (≈ 1.71 µg/mL)
[25]
  MIC: > 125 µM
[26]
  MIC: > 125 µM
[27]
  MIC: > 125 µM
[28]
  MIC: > 125 µM
[29]
  MIC99: 2 µM (≈ 0.853 µg/mL)
[30]
  MIC99: 2 µM (≈ 0.853 µg/mL)
[31]
  MIC: > 125 µM
[4]
  MIC: > 125 µM
[32]
  MIC: > 125 µM
[33]
  MIC: > 125 µM
[34]
  MIC: > 125 µM
[35]
  MIC: > 125 µM
[36]
  MIC99: 1 µM (≈ 0.426 µg/mL)
[37]
  MIC: > 125 µM
[38]
  MIC: > 125 µM
[39]
  MIC: > 125 µM
[40]
  MIC: > 125 µM

## O=[N+]([O-])c1cc(-c2nnn(CSc3nnnn3Cc3ccccc3)n2)cc([N+](=O)[O-])c1
[5]
  MIC99: 0.125 µM (≈ 0.0551 µg/mL)
[6]
  MIC: > 125 µM
[7]
  MIC: > 125 µM
[8]
  MIC: > 125 µM
[9]
  MIC: > 125 µM
[1]
  MIC: > 125 µM
[2]
  MIC: > 125 µM
[10]
  MIC: > 125 µM
[11]
  MIC99: 2 µM (≈ 0.881 µg/mL)
[12]
  MIC: > 125 µM
[13]
  MIC: > 125 µM
[14]
  MIC: > 125 µM
[15]
  MIC: > 125 µM
[3]
  MIC: > 125 µM
[16]
  MIC: > 125 µM
[17]
  MIC: > 125 µM
[18]
  MIC: > 125 µM
[41]
  MIC99: 32 µM (≈ 14.1 µg/mL)
[19]
  MIC: > 125 µM
[20]
  MIC99: 2 µM (≈ 0.881 µg/mL)
[21]
  MIC: > 125 µM
[22]
  MIC99: 0.125 µM (≈ 0.0551 µg/mL)
[23]
  MIC: > 125 µM
[24]
  MIC99: 4 µM (≈ 1.76 µg/mL)
[25]
  MIC: > 125 µM
[26]
  MIC: > 125 µM
[27]
  MIC: > 125 µM
[28]
  MIC: > 125 µM
[29]
  MIC99: 4 µM (≈ 1.76 µg/mL)
[30]
  MIC99: 4 µM (≈ 1.76 µg/mL)
[31]
  MIC: > 125 µM
[4]
  MIC: > 125 µM
[32]
  MIC: > 125 µM
[33]
  MIC: > 125 µM
[34]
  MIC: > 125 µM
[35]
  MIC: > 125 µM
[36]
  MIC99: 4 µM (≈ 1.76 µg/mL)
[37]
  MIC: > 125 µM
[42]
  MIC99: 16 µM (≈ 7.05 µg/mL)
[38]
  MIC: > 125 µM
[39]
  MIC: > 125 µM
[40]
  MIC: > 125 µM

## OC(Cn1cncn1)(Cn1cncn1)c1ccc(F)cc1F [FLUCONAZOLE]
[7]
  MIC: > 500 µM
[10]
  MIC: 1.6 µM (≈ 0.49 µg/mL)
[12]
  MIC: 0.82 µM (≈ 0.251 µg/mL)
[17]
  MIC: > 500 µM
[27]
  MIC: 210 µM (≈ 64.3 µg/mL)
[37]
  MIC: 105 µM (≈ 32.2 µg/mL)
[38]
  MIC: 105 µM (≈ 32.2 µg/mL)
